Assay results from US20250207127A1, “PHYTOECDYSONES AND/OR 20-HYDROXYECDYSONE DERIVATIVES IN COMBINATION WITH AN ACTIVE INGREDIENT FOR RESTORING SMN EXPRESSION, FOR USE IN THE TREATMENT OF SPINAL MUSCULAR ATROPHY” (BIOPHYTIS, priority 2021, published 2025).
Strand notation (5' to 3'): a small letter for the sugar, then the base; units joined by * are phosphorothioate-linked, units joined directly phosphodiester-linked; [ ] holds rarer units or linkages, { } end groups; capitals alone tell only the bases. e = 2'-O-(2-methoxyethyl) (MOE); [5mC] = 5-methylcytosine

Assays:
Type in all cases: in vivo, mouse
[1] = system: SMA mice (Smn^Δ7/Δ7; huSMN2^+/−); experiment: Survival of severe SMA mice treated from P0
Source text: (§1) The antisense oligonucleotide (ASO) of sequence SEQ ID NO: 23 (5′-TCACTTTCATAATGCTGG-3′), of reference ISIS 396443, also known under the name ISIS-SMNRx, and called in the remainder of the description ASO 10-27, complementary to 18 bases (bases 10 to 27) of intron 7 of the SMN2 gene (targeting a site in intron 7, called ISS-N1, which represses the inclusion of exon 7 of the pre-messenger RNA (pre-mRNA) of the SMN2 gene) having modified nucleotides 2′-O-methoxyethyl on the 2′ carbon atom of deoxyribose for each base, with a phosphorothioate backbone and 5-methyl cytosines and the control ASO (denoted mismatch) of sequence SEQ ID NO°: 24 (5′-TTAGTTTAATCACGCTCG-3′) (Singh et al. 2006; Williams et al. 2009), were synthesised and purified as previously described (Baker et al. 1997, Hua et al. 2008; Passini et al., 2011). The oligonucleotides are resuspended at a concentration of 8 μg/μL in 0.9% NaCl and stored at −20° C.
(§2) On the day of injection, the ASO stock solution is diluted to the concentration of 2 μg/μL in 0.9% NaCl. Methylene blue 0.04% is added to the solution as an injection control. Newborn SMA mice receive a single dose of ASO 10-27 or ASO mismatch of 8 μg on the 1st post-natal day (PO) by unilateral intra-cerebro-ventricular injection using a Hamilton syringe and a 32G needle. The injection site is located 1 mm from the sagittal suture, between bregma and lambda, landmarks visible through the skin at PO. The needle is positioned perpendicular to the injection site on the surface of the skin and inserted approximately 3 mm deep to reach the lateral ventricle.
(§3) The complementary treatment BIO101 complexed with cyclodextrin is administered daily to the mice from the first post-natal day (PO) orally at a dose of 50 mg/kg using a pipette.
(§4) A severe SMA mouse model was used on a FVB/NRj genetic background, characterised by the invalidation of exon 7 of the murine Smn gene and expressing two copies of the human SMN2 transgene (Smn^Δ7/Δ7; huSMN2−/+) (Hsieh et al., 2000). The mice resulting from these crosses having the genotype “FVB/NRj-Smn^Δ7/Δ7 huSMN2−/+2 copies” are described as “SMA” (Hsieh et al., 2000). SMA mice were treated with either BIO101 alone or a mismatch ASO or an ASO 10-27 alone, or with an ASO 10-27+BIO101 combined treatment starting from PO. Survival (FIG. 1) and weight

[2] = system: SMA mice (Smn^Δ7/Δ7; huSMN2^+/−); experiment: Open-field test (movement capacities) of SMA mice; conditions: at P15, 5 minutes, mean±SEM
Protocol: as §2, with “ventricle. […]” for “ventricle.”
(§5) We performed phenotypic analyses of severe SMA type 2 mice treated with BIO101 alone or a mismatch ASO or ASO 10-27 alone, or with an ASO 10-27+BIO101 combined treatment from PO. […] We, on the one hand, evaluated the movement capacities by the open-field test (FIG. 3), as well as the muscular fatigability by grip-test (FIG. 4), as previously described (Biondi et al., 2008; Branchu et al., 2013; Chali et al., 2016).
The device used for open-field testing consists of a plastic box measuring 28×28×5 cm with a field grid divided into 16 tiles measuring 7 cm×7 cm. […] The behavioural measurements were recorded by the experimenter during these 5 minutes and the total number of crossed tiles was recorded.

[3] = system: SMA mice (Smn^Δ7/Δ7; huSMN2^+/−); experiment: Weight evolution of severe SMA mice treated from P0; conditions: relative to mismatch ASO
Source text: as §1, §2, §3, §4

[4] = system: SMA mice (Smn^Δ7/Δ7; huSMN2^+/−); experiment: Grip-test (muscle fatigability) of SMA mice; conditions: relative to mismatch ASO
Protocol: as §2, §3, §5
In order to assess the muscle fatigability, the grip strength of the mice's forelimbs was tested. […] The time spent hanging on is recorded. […]

[5] = SMA mice, ASO 8 μg single ICV injection at P0, BIO101 50 mg/kg oral daily from P0

5′-TTAGTTTAATCACGCTCG-3′ (listed as DNA, chemistry not given here) [mismatch ASO, control ASO (denoted mismatch)]
average lifespan of the mouse pups [1, 5]: 13 days | median survival [1, 5]: 13 days

5′-TCACTTTCATAATGCTGG-3′ (antisense eT*e[5mC]*eA*e[5mC]*eT*eT*eT*e[5mC]*eA*eT*eA*eA*eT*eG*e[5mC]*eT*eG*eG) [ASO 10-27, antisense oligonucleotide complementary to bases 10 to 27 of intron 7 of the SMN2 gene]
total number of crossed tiles (open field) [2]: 70±20 tiles | median survival [1, 5]: 18 days | improvement in animal survival ([1]; median survival compared to mismatch ASO control group): 38% | increase of average weight ([3]; at P7): does not increase | increase of average weight ([3]; at P8): 9.9% | increase of average weight ([3]; at P9): 13.9% | increase of average weight ([3]; at P10): 16% | improvement of resistance to fatigue (grip-test) ([4]; at P7): not improved | improvement of resistance to fatigue (grip-test) ([4]; at P15): 7.7%
